Assay [1] deals with crayfish astacin. Further details: method as in PMID 8756323. The following applies: cited from earlier work.
Assay [2] concerns the target T1, recombinant DPY-31 from T. circumcincta (Teladorsagia circumcincta, UniProt A0A0C5PRQ1).
T1 construct: made in house; host or cells: E. coli (inferred from the codon optimisation and the pET28a(+) vector)
Kind of assay: rDPY-31 absorbance assay (astacin assay, Suc-Ala-Ala-Ala-pNA substrate). The assay is classed as biochemical. The following applies: T. circumcincta enzyme; species not given; read-out: IC50 rDPY-31 (in vitro absorbance assay). The source says:
(§1) In total, 104 compounds were screened against recombinant DPY-31 from both the human parasite B. malayi as well as the sheep GI parasite T. circumcincta using an absorbance assay.[(i)], [10] […] This may be due to the extremely slow binding kinetics of these inhibitors.[17]
(§2) The 684bp and 675bp sequences encoding the astacin domains of T. circumcincta DPY-31, and B. malayi DPY-31, were codon-optimised for E. coli by GeneArt (Life Technologies), and cloned into vector pMA-T. These plasmids were then inserted into the pET28a(+) vector, expression of the encoded proteins was induced and the resulting proteins were purified following the methods described previously. Zinc metalloprotease assays were performed to determine the activity of the recombinant DPY-31 proteins from these nematode species, using the previously described method.^18
(§3) An astacin assay was performed to determine the inhibitory activity of all compounds against recombinant DPY-31 from the two nematode species. Briefly, 150 µg/ml of recombinant enzyme was incubated with 0.1 mM ZnCl2 and various concentrations (5 µM to 400 µM) of compound, and the volume was made up to a total of 100 µl with 50 mM NaPO4, pH 8.0 buffer. […] Absorbance was measured on a plate reader at 405 nm. […]

The target of assay [3] is T2, recombinant DPY-31 from B. malayi (Brugia malayi, UniProt A8Q2D1).
T2 construct: made in house; host or cells: E. coli (inferred from the codon optimisation and the pET28a(+) vector)
T2 sequence (A8Q2D1 211-410): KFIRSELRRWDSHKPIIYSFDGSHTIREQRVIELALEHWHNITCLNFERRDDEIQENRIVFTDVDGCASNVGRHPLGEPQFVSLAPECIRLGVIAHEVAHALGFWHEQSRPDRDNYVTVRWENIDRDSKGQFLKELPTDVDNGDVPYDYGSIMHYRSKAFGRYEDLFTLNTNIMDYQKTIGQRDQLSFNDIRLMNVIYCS
Described as above. The conditions noted are these: ±standard error; 3 h pre-incubation, 37 °C, pH 8.0; read-out: pIC50 rDPY-31 B. malayi (converted). The class given is biochemical.
Source text: as §1, §2, §3

Assay [4] concerns T. circumcincta dpy-31 transgenically-rescued C. elegans dpy-31 mutant TP224. In words: Phenotypic screening against transgenic rescue strain TP224. The conditions noted are these: for phenotype induced: TP224, 96 well plate, 3 days, 50 μM to 2 mM. The assay is classed as in vivo, Caenorhabditis elegans. Here is the method: (§4) These compounds were tested against three strains: free-living wild-type C. elegans N2, the T. circumcincta dpy-31 transgenically-rescued C. elegans dpy-31 mutant TP224, and parasitic T. circumcincta (Fig. 4). Phenotypes were evaluated in 96 well plate format over the course of 3 days using concentrations ranging from 50 μM to 2 mM. […] The similarity of these effects between wild-type C. elegans, the mutant strain, and T. circumcincta reinforces the conserved nature of this metalloprotease.
Compounds 8 and 9 were screened against C. elegans N2 or TP224 L4s at 100, 250 and 1000 µM, using 96-well plates. A single L4 was placed into each of the wells in a total volume of 100 µl, made up of compound, M9 buffer and 5 µl 10x concentrated OP50. The compound concentrations were tested in duplicate for each compound. The plates were sealed with gas-permeable covers and incubated at 20 °C for 3 days, with the effects on the phenotypes recorded daily. Representative worm images were taken as described in section 5.1.

Assay [5] concerns free-living wild-type C. elegans N2. Kind of assay: Phenotypic screening against C. elegans N2 larvae. The class given is in vivo, Caenorhabditis elegans. The conditions noted are these: for phenotype induced: C. elegans N2, 96 well plate, 3 days, 50 μM to 2 mM. As for the experimental part:
as §4
Compounds 8 and 9 were screened against C. elegans N2 L4s using 96-well plates. A single L4 was placed into each well in a total volume of 100 µL, made up of compound, M9 buffer and 5 µl 10x concentrated food (E. coli strain OP50), and incubated at 20 °C for 3 days, with the effects on the phenotypes recorded daily. The compounds were screened in duplicate at concentrations ranging from 50 µM to 2 mM. Actinonin (100 µM) was used as a positive control.^18 Representative offspring were transferred onto 2% agarose/0.01% azide pads on slides and viewed with a Zeiss Axioskop2 microscope. Images were taken using an AxioCam camera and Axiovision software.

In assay [6] the test system is parasitic T. circumcincta. In words: Phenotypic screening against T. circumcincta L1s and L3s. The assay is classed as in vivo, Teladorsagia circumcincta. The conditions noted are these: for phenotype induced: T. circumcincta, 96 well plate, 50 μM to 2 mM. Here is the method:
as §4
T. circumcincta L1s or exsheathed L3s were incubated with compounds 8 and 9 at 100, 500 and 1000 µM. 10-20 L1s were incubated per well of a 96-well plate, each well containing compound, 5 µl 10x concentrated OP50 and EBSS (Earle’s Balanced Salt Solution; Life Technologies) to 100 µl, and 10-20 L3s were incubated per well of a 96-well plate, each well containing compound and EBSS to 100 µl. Each compound was tested in duplicate for all concentrations. The plates were sealed with gas-permeable covers and incubated at 26 °C (L1s) or 40 °C (L3s) at 100 rpm for 7-8 days and any observations on development were recorded. Representative worm images were taken as described in section 5.1.

Where a SMILES comes first, the peptide text is derived from it.

T1 sequence (A0A0C5PRQ1 151-614): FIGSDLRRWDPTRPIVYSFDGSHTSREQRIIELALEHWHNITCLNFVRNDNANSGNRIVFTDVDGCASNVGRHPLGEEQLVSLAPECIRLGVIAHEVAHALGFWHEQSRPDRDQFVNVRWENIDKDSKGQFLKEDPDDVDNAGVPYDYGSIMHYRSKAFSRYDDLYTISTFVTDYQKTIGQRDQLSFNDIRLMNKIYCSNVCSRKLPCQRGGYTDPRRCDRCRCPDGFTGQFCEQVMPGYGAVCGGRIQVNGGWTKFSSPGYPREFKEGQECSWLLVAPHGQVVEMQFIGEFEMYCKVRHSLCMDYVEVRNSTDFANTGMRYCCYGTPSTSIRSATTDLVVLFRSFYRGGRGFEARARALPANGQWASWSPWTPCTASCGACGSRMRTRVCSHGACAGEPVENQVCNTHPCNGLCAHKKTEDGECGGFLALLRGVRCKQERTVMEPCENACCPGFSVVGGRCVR

`COC(=O)C1CCCN1C(=O)C(C)CP(=O)(O)C(Cc1ccccc1)NC(=O)C(CCCCN)NC(=O)C1CCCN1C(=O)OCc1ccccc1` (stereo not drawn) [Compound 1]: in assay [1], the “inhibition of crayfish astacin” value is reported as “mid-μM inhibitor”. The IC50 in assay [2] was over 500 µM.

Consider `CNC(=O)[C@@H](NC(=O)[C@H](CC(C)C)[C@H](O)C(=O)NO)C(C)(C)C` [Compound 3, marimastat], for which the IC50 in assay [3] was 200 µM.

As to `C[C@H](NC(=O)[C@@H]1CCCN1C(=O)OC(C)(C)C)C(=O)N[C@@H](Cc1ccccc1)C(=O)NO` [Compound 8] (HELM PEPTIDE1{[CC(C)(C)OC(=O)[*:2]].P.A.F.[ON[*:1]]}$$$$V2.0), the “phenotype observed (Figure 4d)” value in assay [4] (L1 TP224, 100 μM) was “Dpy L1 phenotype”. The phenotype induced entry in assay [4], in assay [5] and in assay [6] was “induce the Dpy phenotype” each time. Further, the “phenotype observed (Figure 4b)” value in assay [5] (L1 C. elegans (N2), 50 μM) is “Dpy phenotype”.

In the case of `C[C@H](NC(=O)[C@@H]1CCCN1C(=O)OCC1c2ccccc2-c2ccccc21)C(=O)N[C@@H](Cc1ccccc1)C(=O)NO` [Compound 9] (HELM PEPTIDE1{[O=C(OCC1c2ccccc2-c2ccccc21)[*:2]].P.A.F.[ON[*:1]]}$$$$V2.0), the phenotype induced result in assay [4], in assay [5] and in assay [6] was “induce the Dpy phenotype” in each case. For the same compound, the “phenotype observed (Figure 4f)” value in assay [6] (T. circumcincta L3, 500 μM) is “Dpy phenotype”.
